Data reported in patent US10150734B2, “Solid forms of 2-(5-(3-fluorophenyl)-3-hydroxypicolinamido)acetic acid, compositions, and uses thereof” (Akebia Therapeutics, Inc., priority 2015, dated 2018).
≈ marks a conversion by molar mass, not a printed value. Entries after “also recorded” stand apart in the source; their conditions may differ. Like-named read-outs stand apart in the source and are kept apart here.

Assays:
[1] = Dynamic vapour sorption (moisture sorption) with XRPD of post-DVS material; type: physicochemical; conditions: for Moisture Sorption (hygroscopicity in words): from uptake at 60% and 90% RH; for XRPD analysis of the post-DVS material: after DVS and drying at 60 °C for 2 hours; for Hygroscopicity (in words): from DVS moisture sorption
Protocol: Dynamic vapour sorption experiment was carried out by first holding the sample at 40% RH and 25.0° C. until an equilibrium weight was reached or for a maximum of four hours. The sample was then subjected to an isothermal (at 25.0° C.) adsorption scan from 40 to 90% RH in steps of 10%. The sample was allowed to equilibrate to an asymptotic weight at each point for a maximum of four hours. Following adsorption, a desorption scan from […] to 5% RH (at 25.0° C.) was run in steps of 10% again allowing a maximum of four hours for equilibration to an asymptotic weight. An adsorption scan was then performed from 0 to 40% RH in steps of 10%. The sample was then dried for no less than two hours at 60.0° C. and the resulting solid analyzed by XRPD.

[2] = Competitive slurry of calcium, potassium and sodium salts in acetone; type: physicochemical; conditions: for Outcome of competitive slurry of salts (in words): acetone (50 μL water added for potassium and sodium salts), room temperature, one and seven days; for XRPD of solids, aliquot time point Day 1 / XRPD of solids, aliquot time point Day 7: RT
Protocol: Calcium, sodium, and potassium salts were used to setup different competitive slurry experiments. For competitive slurry of calcium salts (˜5-6 mg of Salt I and Salt II) were weighed into a 5.0 mL clear vial equipped with magnetic stir bars. These steps were repeated for potassium salt material (˜5-6.5 mg of Salt III) and sodium salt materials (˜2.6-6.4 mg of Salt IV and Salt V). […] All slurries, 400 μL, were filtered through 0.45 micron centrifuge filters after one and seven days of equilibration. The solids were analyzed by XRPD to check for salt conversion (Table 36).

[3] = Thermal holding (TGA thermal hold) experiments of salts, XRPD of resulting solid; type: physicochemical; conditions: for XRPD Pre-thermal hold: before TGA thermal hold; for XRPD Post thermal hold / XRPD Post thermal hold, sample left on bench top, 24 hrs: 30-130 °C at 10 °C/min, hold 130 °C/2 min; for XRPD Post thermal hold, sample left on bench top, 24 hrs: then bench top 24 hrs; for XRPD of solid after thermal hold at 130 °C for 2 minutes: held at 130 °C for 2 minutes, cooled to ambient temperature
Protocol: Salt I, Salt II, Salt III, Salt IV, Salt V, Salt VI, Salt VII, Salt VIII, Salt IX and Salt X were characterized to evaluate its physical form and stability.
In an effort to isolate a high melt crystal form, the material was held at 130° C. for 2 minutes followed by cooling to ambient temperature.
In an effort to isolate a high melt crystal form through a dehydration/recrystallization process, Salt IV was held at 130° C. for 2 minutes followed by cooling to ambient temperature.

[4] = Stability of crystalline materials from selected salts in different humidity (XRPD); type: physicochemical; conditions: for XRPD Post humidity exposure: 65% RH, RT; for XRPD Initial: before humidity exposure
Source text: Table 49 provides thermal stability data. Table 50 provides TGA thermal data.

[5] = Thermal stability experiments (solid stored at 60 °C; XRPD and HPLC); conditions: for XRPD, aliquot time point Day 1 / XRPD, aliquot time point Day 7: solid stored at 60.0 °C; for Physical form / XRPD pattern change after storage at 60 °C for seven days (in words) / Chemical stability / degradation by HPLC after storage at 60 °C for seven days (in words): solid
[6] = Aqueous solubility (slurry in deionized water at room temperature, filtrate by HPLC, solids by XRPD); conditions: for Aqueous Solubility / Solubility: deionized water; for Aqueous Solubility: standard curve linear range 0.008 to 0.2 mg/mL; for Aqueous Solubility: XRPD (1 day) of solids: solid form after 1 day slurry in water; for Solubility: equilibrated with stirring, filtrate by HPLC
Protocol: Approximately 14-25 mg of Forms A, D and G were transferred to 20 mL vials equipped with magnetic stir bars. 1.0 mL of deionized water was added and the resulting free flowing slurry was allowed to equilibrate over 1 and 7 days period with stirring at room temperature. […] The filtrates were analyzed by HPLC to determine solubility.

[7] = Thermal holding (TGA thermal hold) experiments of salts, XRPD of resulting solid; type: physicochemical
[8] = Single form slurry experiments of Forms A, D and G; type: physicochemical; conditions: ambient temperature, all tested conditions
Protocol: Single form slurry experiments were conducted for Forms A, D and G in three solvents stems, water, 1:2 v/v IPAc/heptane, and toluene to evaluate their physical form stability as a single polymorph (Table 14). Form A remained unchanged at six day time point. […] Form D remained unchanged for three days in water but converted to a mixture A and D at six days. In 1:2 IPAc/heptane and toluene, Form D converted to a mixture of A and D at three days and then Form A at six days. […] Form D is also a metastable polymorph but its conversion to Form A is kinetically slower than Form G. The conversion was the slowest in water partly due to low solubility.
Approximately 10-20 mg of Forms A, D and G were weighed into 8 mL clear vials equipped with magnetic stir bars (Table 14). Water, IPAc/Heptane (1:2 V/V) and toluene were used as the solvent systems for these competitive slurry experiments. Three selected solvents, 1.0 mL, were added to achieve free-flowing slurry and allowed to equilibrate at room temperature. All slurries will be isolated via centrifuge filtration after three day and six days of equilibration.

[9] = slurry of potassium or sodium salts in acetone + 0.05 mL water
[10] = after thermal stress at 60.0 °C
[11] = parent material before thermal stress
[12] = competitive slurry of calcium salts (Salt I + Salt II) in acetone 1.0 mL

SMILES	hydration property [1]	Moisture Sorption ([1]; 60% RH)	Moisture Sorption ([1]; 90% RH)	Moisture adsorbed at 60% RH ([1]; DVS, 25.0 °C, 60% RH)	Moisture Sorption 90% RH ([1]; DVS, 25.0 °C, 90% RH)	Moisture Sorption (hygroscopicity in words) ([1]; DVS)	Outcome of competitive slurry of salts (in words) [2]	XRPD of solids, aliquot time point Day 1 [2, 9]	XRPD of solids, aliquot time point Day 7 [2, 9]	XRPD Initial [4]	HPLC (% AUC) [5, 10]	Parent Material HPLC (% AUC) [5, 11]	XRPD, aliquot time point Day 1 [5]	XRPD, aliquot time point Day 7 [5]	Aqueous Solubility ([6]; room temperature)	Aqueous Solubility: XRPD (1 day) of solids [6]	Physical form / XRPD pattern change after storage at 60 °C for seven days (in words) [5]	Chemical stability / degradation by HPLC after storage at 60 °C for seven days (in words) [5]	XRPD analysis of the post-DVS material [1]	Hygroscopicity (in words) [1]	also measured
O=C(O)CNC(=O)c1ncc(-c2cccc(F)c2)cc1O [Form G, 2-(5-(3-fluorophenyl)-3-hydroxypicolinamido)acetic acid]				0.4 wt %	7.1 wt %								form mixture; also recorded: A + G	only Form A				chemically stable	afforded Form A	slightly hygroscopic; also recorded: moderately hygroscopic	Moisture Sorption 60% RH ([1]; DVS, 25.0 °C, 60% RH): 0.4%; Moisture Sorption 90% RH ([1]; DVS, 25.0 °C, 90% RH, listed as G): 7.1 wt %; Weight moisture uptake at 60% RH ([1]; DVS, 60% RH): about 0.4 % weight; Weight moisture uptake at 90% RH ([1]; DVS, 90% RH): about 7.1 % weight; Outcome in the single form and competitive slurry experiments (in words) [8]: converted to Form A; HPLC (% AUC) ([5]; after storage at 60.0 °C): >99.9 % AUC; Parent Material HPLC (% AUC) ([5]; before storage at 60.0 °C): >99.3 % AUC; Solubility ([6]; water, thermodynamic from solid, Solubility, room temperature): 61 µg/mL (≈ 210 µM)
O=C([O-])CNC(=O)c1ncc(-c2cccc(F)c2)cc1O.[K+] [Salt III]		60% RH: 2.1 wt %	90% RH: 4.5 wt %	2.1 wt %	4.5 wt %	(moderately	most stable polymorphs	Salt III	Salt III	Salt III + Salt IX	99.9 % AUC	99.9 % AUC	Salt III	Salt III			no change in physical form			moderately hydroscopic; also recorded: moderately hygroscopic	hydration property ([1]; 60% RH): hemi-(60% RH); hydration property ([1]; 90% RH): to mono-hydrate; XRPD Post thermal hold [3]: Salt III; XRPD Post thermal hold, sample left on bench top, 24 hrs [3]: Salt III; XRPD of solid after thermal hold at 130 °C for 2 minutes [3]: consistent with Salt III; XRPD Post humidity exposure [4]: Salt III + Salt IX; Solid form by XRPD after 1 day ([6]; slurry in deionized water, room temperature, 1 day (24 hour)): converted from Salt III to Salt IX; Solid form by XRPD after 7 day ([6]; slurry in deionized water, room temperature, 7 days): remained as Salt IX

More lines, main results first:

hydration property [1]	Moisture Sorption ([1]; 60% RH)	Moisture Sorption ([1]; 90% RH)	Moisture adsorbed at 60% RH ([1]; DVS, 25.0 °C, 60% RH)	Moisture Sorption 90% RH ([1]; DVS, 25.0 °C, 90% RH)	Moisture Sorption (hygroscopicity in words) ([1]; DVS)	Outcome of competitive slurry of salts (in words) [2]	XRPD of solids, aliquot time point Day 1 [2, 9]	XRPD of solids, aliquot time point Day 7 [2, 9]	XRPD Initial [4]	HPLC (% AUC) [5, 10]	Parent Material HPLC (% AUC) [5, 11]	XRPD, aliquot time point Day 1 [5]	XRPD, aliquot time point Day 7 [5]	Aqueous Solubility ([6]; room temperature)	Aqueous Solubility: XRPD (1 day) of solids [6]	Physical form / XRPD pattern change after storage at 60 °C for seven days (in words) [5]	Chemical stability / degradation by HPLC after storage at 60 °C for seven days (in words) [5]	SMILES	XRPD analysis of the post-DVS material [1]	Hygroscopicity (in words) [1]	also measured
monohydrate	60% RH: 6.0 wt %	90% RH: 6.4 wt %	6.0 wt %	6.4 wt %	(moderately	most stable polymorphs	Salt V +	Salt V	Salt V	99.9 % AUC	99.9 % AUC	Salt V	Salt V	79800 µg/mL	Salt V + Extra			O.O=C([O-])CNC(=O)c1ncc(-c2cccc(F)c2)cc1[O-].[Na+].[Na+] [Salt V]	mostly consistent with Salt V with a few missing peaks	moderately hydroscopic; also recorded: moderately hygroscopic	XRPD Pre-thermal hold [3]: Salt V; XRPD Post humidity exposure [4]: Salt V
anhydrate	60% RH: 0.3 wt %	90% RH: 0.7 wt %	0.3 wt %	0.7 wt %														O=C([O-])CNC(=O)c1ncc(-c2cccc(F)c2)cc1O.[Na+] [Salt VI]	consistent XRPD diffractogram	slightly hydroscopic; also recorded: slightly hygroscopic	
monohydrate	60% RH: 6.1 wt %	90% RH: 6.5 wt %	6.1 wt %	6.5 wt %	(moderately		Salt V +	Salt V	Salt IV	99.9 % AUC	99.9 % AUC	Salt IV	Salt IV	19000 µg/mL	Salt IV + Extra	no polymorph conversion or degradation	no polymorph conversion or degradation	O.O=C([O-])CNC(=O)c1ncc(-c2cccc(F)c2)cc1O.[Na+] [Salt IV]	consistent XRPD pattern as the starting material	moderately hydroscopic; also recorded: moderately hygroscopic	XRPD Post thermal hold [3]: Salt IV; XRPD Post thermal hold, sample left on bench top, 24 hrs [3]: Salt IV; XRPD Pre-thermal hold [3]: Salt IV; XRPD of solid after thermal hold at 130 °C for 2 minutes [3]: consistent with Salt IV; XRPD Post thermal hold ([7]; 180-260 °C at 10 °C/min, hold 260 °C/2 min): Salt VI; XRPD Post thermal hold, sample left on bench top, 24 hrs ([7]; 180-260 °C at 10 °C/min, hold 260 °C/2 min, then bench top 24 hrs): Salt VI; XRPD of solid after thermal hold at 260 °C ([7]; held at 260 °C): conversion to a new salt (Salt VI); Form change after slurrying in water for 13 days ([6]; aqueous solubility study, 13 days): no form change; Solubility ([6]; room temperature): 19000 µg/mL
	60% RH: 1.0 wt %	90% RH: 4.1 wt %	1.0 wt %	4.1 wt %	(moderately	most stable polymorphs						Salt I	Salt I	10 µg/mL	Salt I + Extra	no change in physical form	chemically stable	O=C([O-])CNC(=O)c1ncc(-c2cccc(F)c2)cc1O.O=C([O-])CNC(=O)c1ncc(-c2cccc(F)c2)cc1O.[Ca+2] [Salt I]	consistent XRPD pattern as the starting material	moderately hydroscopic; also recorded: moderately hygroscopic	hydration property ([1]; 60% RH): anhydrate (60%; hydration property ([1]; 90% RH): monohydrate; XRPD of solids, aliquot time point Day 1 [2, 12]: Salt I; XRPD of solids, aliquot time point Day 7 [2, 12]: Salt I; Solubility ([6]; room temperature): 10 µg/mL
